Assay results reported in patent EP1058559B1, “COMBINATION OF A SELECTIVE NMDA NR2B ANTAGONIST AND A COX-2 INHIBITOR” (MERCK SHARP & DOHME LTD., priority 1998, dated 1999).

How the values were obtained:
[1] = tested on: mechanical hyperalgesia induced by carrageenan; experiment: carrageenan-induced hyperalgesia assay (mechanical thresholds, modified Ugo Basile Algesiometer); format: in vivo, male Sprague Dawley rats; conditions: for inhibition of hyperalgesia: alone, Figure 2
Method: (§1) The present Example examined whether NMDA NR2B receptor antagonists have an improved therapeutic window over unselective NNIDA/glycine antagonists and other ion channel blockers including lamotrigine and gabapentin, by comparing their anti-algesic effects with their liability to induce motor impairment in rats. Anti-algesic activity was assessed using an assay of neuropathic pain in rats (sciatic nerve ligation) and in a carrageenan-induced hyperalgesia assay. Motor impairment was measured using an accelerating rotarod.
For sciatic nerve ligation, male Sprague Dawley rats (180-220g) were anaesthetised with isofluorane, the left sciatic nerve exposed and 4 chromic catgut (4.0) ligatures were tied loosely around the nerve (spaced 1-2 mm apart) immediately proximal to the point of trifurcation. In shamoperated animals, the same dissection was performed but without ligation. Responses to mechanical pressure were assessed 7 days after ligation using a modified Randall-Selitto algesiometer in which constant force of […] was applied to the hind paw and the latency to struggle was recorded as the reaction time. […] Reaction times for drug treated rats were expressed as a percentage of this response. […] In the carrageenan-induced hyperalgesia assay, male Sprague Dawley rats (100-120 g) received an intraplantar injection of carrageenan (4.5 mg) and mechanical thresholds were determined 3 h later using a modified Ugo Basile Algesiometer. […] Paw pressure scores for drug-treated rats were expressed as a percentage of this response. […] Animals then received drug treatments and 1 h later were placed on an accelerating rotarod (increasing from 4 - 40 r.p.m. during a 5 min period) and the time the rats were able to remain on the rotarod recorded. […]
Mate Sprague Dawley rats (100-120 g) received an intraplantar injection of carrageenan (4.5 mg) and mechanical thresholds were determined 3 h later using a modified Ugo Basile Algesiometer. […] Paw pressure scores for drug-treated rats were expressed as a percentage of this response. […]

[2] = tested on: mechanical allodynia induced by sciatic nerve ligation; experiment: sciatic nerve ligation assay of neuropathic pain (mechanical allodynia, modified Randall-Selitto algesiometer); format: in vivo, male Sprague Dawley rats; conditions: result in words; given 1 h before the test
Method: as §1
(§2) For sciatic nerve ligation, male Sprague Dawley rats (180-220g) were anaesthetised with isofluorane, the left sciatic nerve exposed and 4 chromic catgut (4.0) ligatures were tied loosely around the nerve (spaced 1-2 mm apart) immediately proximal to the point of trifurcation. In shamoperated animals, the same dissection was performed but without ligation. Responses to mechanical pressure were assessed 7 days after ligation using a modified Randall-Selitto algesiometer in which constant force of […] was applied to the hind paw and the latency to struggle was recorded as the reaction time. Mechanical allodynia was defined as the difference in reaction time for sham and ligature rats. Reaction times for drug treated rats were expressed as a percentage of this response. Compounds were administered 1 h before the test. In the carrageenan-induced hyperalgesia assay, male Sprague Dawley rats (100-120 g) received an intraplantar injection of carrageenan (4.5 mg) and mechanical thresholds were determined 3 h later using a modified Ugo Basile Algesiometer. Control rats received saline (0.15 ml i.pl.). Hyperalgesia was defined as the difference in vocalisation threshold for saline- and carrageenan-injected rats. Paw pressure scores for drug-treated rats were expressed as a percentage of this response. Compounds were administered 2 h after carrageenan. To determine the effects of the compounds on motor co-ordination, male Sprague Dawley rats (160-180 g) were first trained to remain for 120 s on the rotarod apparatus revolving at 12 r.p.m. on the morning before the test. Animals then received drug treatments and 1 h later were placed on an accelerating rotarod (increasing from 4 - 40 r.p.m. during a 5 min period) and the time the rats were able to remain on the rotarod recorded. Lamotrigine, gabapentin and (±)-CP-101,606 were suspended in 0.5% methocel and administered orally (1 ml/kg). Ifenprodil, L-701,324, L-687,414 and (±)-Ro25-6981 were dissolved or suspended in 0.5% methocel and administered intraperitoneally (1 ml/kg). MK-801 was dissolved in distilled water and given i.p. (1 ml/kg). Doses of compounds refer to the free base.

motor co-ordination = experiment: accelerating rotarod (motor co-ordination) with observed behaviour; format: in vivo, male Sprague Dawley rats; conditions: for ID50 Motor Impairment Rat Rotarod: male, Sprague Dawley, in vivo, ip, 1 h
Method: as §1, §2
To determine the effects of morphine and (±)-Ro25-6981 on motor co-ordination, male Sprague Dawley rats (160-180 g) were first trained to remain for 120 s on the rotarod apparatus revolving at. 12 r.p.m. on the morning before the test. Animals then received drug treatments and 1 h later were placed on an accelerating rotarod (increasing from 4 - 40 r.p.m. during a 5 min period) and the time the rats were able to remain on the rotarod recorded.

[3] = at doses showing no behavioural abnormality; cited from earlier work

**Q.** Which “reversal of mechanical hyperalgesia induced by carrageenan” value ([1]; 10 and 30 mg/kg i.p., Figure 1) does the source give for `C[C@@H](CN1CCC(Cc2ccccc2)CC1)[C@@H](O)c1ccc(O)cc1` (racemic) [(±)-Ro25-6981] here?
**A.** dose-dependent reversal of mechanical hyperalgesia

**Q.** And the “reversal of mechanical allodynia induced by sciatic nerve ligation” value (“reversal of mechanical allodynia induced” for short) [2]?
**A.** dose-dependently reversed mechanical allodynia

**Q.** And the “ID50 Motor Impairment Rat Rotarod” value (motor co-ordination)?
**A.** ≥100 mg/kg

**Q.** Which results are given for `NCC1(CC(=O)O)CCCCC1` [Gabapentin]?
**A.** reversal of mechanical allodynia induced by sciatic nerve ligation [2]: reversed mchanical allodynia; motor impairments observed (motor co-ordination; doses of 30-300 mg/kg): motor impairments (ataxia)

**Q.** For `CC(C(O)c1ccc(O)cc1)N1CCC(Cc2ccccc2)CC1` (centres unmarked) [Ifenprodil], which “reversal of mechanical allodynia induced” value [2] is on record?
**A.** reversed mchanical allodynia

**Q.** What about the “ID50 Motor Impairment Rat Rotarod” value (motor co-ordination) of the same compound?
**A.** ≥50 mg/kg

**Q.** Which “reversal of mechanical allodynia induced” value [2] does the source give for `C[C@@H]1CN(O)C(=O)[C@@H]1N` [L-687,414] here?
**A.** dose-dependently reversed mechanical allodynia

**Q.** For `O=c1[nH]c2cc(Cl)ccc2c(O)c1-c1cccc(Oc2ccccc2)c1` [L-701,324], which “reversal of mechanical allodynia induced” value [2] is on record?
**A.** dose-dependently reversed mechanical allodynia

**Q.** What about the behavioural effects observed (motor co-ordination; 10 and 30 mg/kg i.p.) of the same compound?
**A.** ataxia

**Q.** Which results are given for `CS(=O)(=O)Nc1cc2c(cc1Sc1ccc(F)cc1F)C(=O)CC2` [L-745,337]?
**A.** inhibition of hyperalgesia ([1]; 3 mg/kg p.o.): 75%; inhibition of hyperalgesia ([1]; 0.3-3 mg/kg p.o., result in words): dose-dependent inhibition of hyperalgesia

**Q.** For `Nc1nnc(-c2cccc(Cl)c2Cl)c(N)n1` [Lamotrigine], which “reversal of mechanical allodynia induced” value [2] is on record?
**A.** reversed mchanical allodynia

**Q.** Which “reversal of mechanical allodynia induced” value [2] does the source give for `C[C@]12N[C@H](Cc3ccccc31)c1ccccc12` [MK-801] here?
**A.** dose-dependently reversed mechanical allodynia

**Q.** What about the behavioural effects observed (motor co-ordination; 0.3 and 1 mg/kg doses (i.p.)) of the same compound?
**A.** Body rolling, and head weaving

**Q.** For (±)-CP-101,606, which “reversal of mechanical allodynia induced” value [2] is on record?
**A.** dose-dependently reversed mechanical allodynia

**Q.** What about the analgesic activity [3] of the same compound?
**A.** Potent analgesic activity
